pIC50: −log10 of the molar value.

The target in this assay is T1, PI3Kδ (PI3 Kd) (Homo sapiens, UniProt O00329).
T1 construct: purchased Millipore
The assay can be described thus: PI3K HTRF enzymatic inhibition assay (cell-free), PI3Kd. The class given is biochemical. The protocol:
PI3K α, β, δ and γ Enzymatic Inhibition Assays
Compounds were screened for their ability to inhibit PI3Kα (PI3Kα), PI3Kβ (PI3 Kb), PI3Kδ (PI3 Kd) and PI3Kγ (PI3 Kg) using a cell-free based PI3K HTRF™ assay (Millipore, ref. #33-017) All reagents to perform the reactions were prepared according to the manufacturer protocol. All PI3K enzymes were recombinant and were purchased at Millipore.
These concentrations were final in the assay. • 3) A reservoir plate containing Adenosine TriPhosphate (ATP) diluted in the Millipore kit buffer was prepared for each isoform. […] Incubation was done for 8 minutes (for all four isoforms) then the reaction was stopped by addition of the Stop solution. The Detection solution was added. These solutions were prepared previously according to the kit specifications.
In general terms: In TR-FRET formats the signal depends on donor and acceptor labels being close together.

T1 sequence (O00329 whole entry): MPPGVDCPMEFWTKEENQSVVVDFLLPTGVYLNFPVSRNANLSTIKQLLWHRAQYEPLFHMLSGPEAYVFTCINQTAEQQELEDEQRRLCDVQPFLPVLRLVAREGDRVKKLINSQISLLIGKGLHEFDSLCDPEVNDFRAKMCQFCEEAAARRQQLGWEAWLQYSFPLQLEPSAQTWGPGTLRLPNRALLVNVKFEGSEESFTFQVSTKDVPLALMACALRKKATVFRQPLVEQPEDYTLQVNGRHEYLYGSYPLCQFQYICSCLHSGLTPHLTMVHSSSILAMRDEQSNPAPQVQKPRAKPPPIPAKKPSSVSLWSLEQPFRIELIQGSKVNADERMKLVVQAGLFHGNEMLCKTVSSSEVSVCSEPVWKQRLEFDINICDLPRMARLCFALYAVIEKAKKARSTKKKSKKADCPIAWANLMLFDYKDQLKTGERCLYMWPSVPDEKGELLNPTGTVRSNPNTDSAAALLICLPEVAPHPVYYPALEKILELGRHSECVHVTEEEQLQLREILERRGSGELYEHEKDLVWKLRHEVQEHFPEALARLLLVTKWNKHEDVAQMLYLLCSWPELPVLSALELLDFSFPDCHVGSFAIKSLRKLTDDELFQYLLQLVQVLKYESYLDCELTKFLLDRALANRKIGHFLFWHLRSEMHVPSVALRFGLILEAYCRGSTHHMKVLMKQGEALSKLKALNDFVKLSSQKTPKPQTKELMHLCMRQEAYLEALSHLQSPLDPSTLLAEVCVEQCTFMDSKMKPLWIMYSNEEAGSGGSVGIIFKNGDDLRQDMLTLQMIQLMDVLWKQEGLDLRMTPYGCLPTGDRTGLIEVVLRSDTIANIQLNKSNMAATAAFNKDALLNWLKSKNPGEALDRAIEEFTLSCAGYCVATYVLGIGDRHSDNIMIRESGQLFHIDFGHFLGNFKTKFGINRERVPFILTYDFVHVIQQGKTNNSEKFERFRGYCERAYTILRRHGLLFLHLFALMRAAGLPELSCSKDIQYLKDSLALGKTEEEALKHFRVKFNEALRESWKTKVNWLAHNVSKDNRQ
T1 sequence (P27986 whole entry partner): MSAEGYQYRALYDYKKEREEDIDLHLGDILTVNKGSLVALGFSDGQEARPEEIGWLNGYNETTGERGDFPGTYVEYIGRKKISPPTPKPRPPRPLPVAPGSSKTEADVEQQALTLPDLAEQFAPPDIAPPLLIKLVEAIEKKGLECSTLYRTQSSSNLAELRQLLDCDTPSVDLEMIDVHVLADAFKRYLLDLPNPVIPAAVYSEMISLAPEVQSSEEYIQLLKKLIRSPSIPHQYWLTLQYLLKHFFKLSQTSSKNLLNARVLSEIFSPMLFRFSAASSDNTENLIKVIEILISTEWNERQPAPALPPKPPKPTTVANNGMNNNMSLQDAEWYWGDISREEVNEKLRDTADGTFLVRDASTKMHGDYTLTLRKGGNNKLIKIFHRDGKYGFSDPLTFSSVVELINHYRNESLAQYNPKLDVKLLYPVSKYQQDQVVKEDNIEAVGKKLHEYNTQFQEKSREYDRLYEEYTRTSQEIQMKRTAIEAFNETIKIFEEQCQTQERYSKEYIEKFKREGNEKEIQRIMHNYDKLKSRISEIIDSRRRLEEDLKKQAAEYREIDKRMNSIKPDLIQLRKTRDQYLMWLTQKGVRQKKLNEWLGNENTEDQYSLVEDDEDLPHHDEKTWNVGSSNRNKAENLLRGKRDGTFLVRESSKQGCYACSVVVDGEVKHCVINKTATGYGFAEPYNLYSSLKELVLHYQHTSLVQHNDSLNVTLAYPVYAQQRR

Consider `N#Cc1c(N)ncnc1N[C@@H](CCO)c1nn2cccc2c(=O)[nH]1` [Example 165, (S)-4-Amino-6-(3-hydroxy-1-(4-oxo-3,4-dihydropyrrolo[1,2-f][1,2,4]triazin-2-yl)propylamino)pyrimidine-5-carbonitrile], for which the pIC50 is 6.17. The same measure for `CCCOC(=O)c1ccn2nc(C(C)Nc3ncnc(N)c3C#N)n(-c3ccccc3)c(=O)c12` [Example 164, (S)-Propyl 2-(1-(6-amino-5-cyanopyrimidin-4-ylamino)ethyl)-4-oxo-3-phenyl-3,4-dihydropyrrolo[1,2-f][1,2,4]triazine-5-carboxylate]: 7.17; for `Cc1ccccc1-n1c(Cn2cnc3c(N)ncnc32)nn2ccc(C(F)(F)F)c2c1=O` [Example 25, 2-((6-Amino-9H-purin-9-yl)methyl)-3-o-tolyl-5-(trifluoromethyl)pyrrolo[1,2-f][1,2,4]triazin-4(3H)-one]: 6.46.

The compound `Cc1ccc2c(=O)n(-c3ccccc3)c([C@H](C)Nc3ncnc(N)c3C#N)nn12` [Example 71, (S)-4-Amino-6-(1-(7-methyl-4-oxo-3-phenyl-3,4-dihydropyrrolo[1,2-f][1,2,4]triazin-2-yl)ethylamino)pyrimidine-5-carbonitrile] gave a pIC50 of 8.05. Turning to `C[C@H](Nc1ncnc(N)c1C#N)c1nn2ccc(C#N)c2c(=O)n1-c1cccc(C(F)(F)F)c1` [Example 176, (S)-2-(1-(6-Amino-5-cyanopyrimidin-4-ylamino)ethyl)-4-oxo-3-(3-(trifluoromethyl)phenyl)-3,4-dihydropyrrolo[1,2-f][1,2,4]triazine-5-carbonitrile], the pIC50 is 7.49. Turning to `Cc1ccccc1-n1c(Cn2cnc3c(N)ncnc32)nn2ccnc2c1=O` [Example 31, 2-((6-amino-9H-purin-9-yl)methyl)-3-o-tolylimidazo[1,2-f][1,2,4]triazin-4(3H)-one], the pIC50 is 5.18. The same measure for `Cc1nc(-c2ccn3nc([C@H](C)Nc4ncnc5[nH]cnc45)n(-c4cc(F)cc(F)c4)c(=O)c23)no1` [Example 125, (S)-2-(1-(9H-Purin-6-ylamino)ethyl)-3-(3,5-difluorophenyl)-5-(5-methyl-1,2,4-oxadiazol-3-yl)pyrrolo[1,2-f][1,2,4]triazin-4(3H)-one]: 7.05.

Regarding `C[C@H](Nc1ncnc(N)c1C#N)c1nn2ccc(Br)c2c(=O)[nH]1` [Example 142, (S)-4-Amino-6-(1-(5-bromo-4-oxo-3,4-dihydropyrrolo[1,2-f][1,2,4]triazin-2-yl)ethylamino)pyrimidine-5-carbonitrile], the pIC50 is 8.30.

Compound `C[C@H](Nc1ncnc(N)c1C#N)c1nn2ccnc2c(=O)n1-c1ccccc1` [Example 50, (S)-4-amino-6-(1-(4-oxo-3-phenyl-3,4-dihydroimidazo[1,2-f][1,2,4]triazin-2-yl)ethylamino)pyrimidine-5-carbonitrile] showed a pIC50 of 7.24. The same measure for `C[C@H](Nc1ncnc2[nH]cnc12)c1nn2ccc(C#N)c2c(=O)n1-c1ccccc1` [Example 61, (S)-2-(1-(9H-Purin-6-ylamino)ethyl)-4-oxo-3-phenyl-3,4-dihydropyrrolo[1,2-f][1,2,4]triazine-5-carbonitrile]: 8.22; for `C[C@H](Nc1ncnc(N)c1C#N)c1nn2cccc2c(=O)n1C1CCOCC1` [Example 136, (S)-4-Amino-6-(1-(4-oxo-3-(tetrahydro-2H-pyran-4-yl)-3,4-dihydropyrrolo[1,2-f][1,2,4]triazin-2-yl)ethylamino)pyrimidine-5-carbonitrile]: 7.62. The same measure for `Nc1ncnc2c1ncn2Cc1nn2ccc(Cl)c2c(=O)n1Cc1ccccc1` [Example 29]: 6.42; for `Cc1ccccc1-n1c(Cn2cnc3c(N)ncnc32)nn2ccc(Cl)c2c1=O` [Example 1, 2-((6-Amino-9H-purin-9-yl)methyl)-5-chloro-3-o-tolylpyrrolo[1,2-f][1,2,4]triazin-4(3H)-one]: 6.92. `C[C@H](Nc1ncnc2[nH]cc(F)c12)c1nn2cccc2c(=O)n1-c1ccccc1` [Example 81, (S)-2-(1-(5-Fluoro-7H-pyrrolo[2,3-d]pyrimidin-4-ylamino)ethyl)-3-phenylpyrrolo[1,2-f][1,2,4]triazin-4(3H)-one] gave a pIC50 of 8.05.

In turn, `C[C@H](Nc1ncnc(N)c1C#N)c1nn2cccc2c(=O)n1-c1cn[nH]c1` [Example 124, (S)-4-Amino-6-(1-(4-oxo-3-(1H-pyrazol-4-yl)-3,4-dihydropyrrolo[1,2-f][1,2,4]triazin-2-yl)ethylamino)pyrimidine-5-carbonitrile] showed a negative-log IC50 (pIC50) of 7.96. The same measure for `C[C@H](Nc1ncnc(N)c1C#N)c1nn2ccc(CN3CCOCC3)c2c(=O)n1-c1ccccc1` [Example 122, (S)-4-Amino-6-(1-(5-(morpholinomethyl)-4-oxo-3-phenyl-3,4-dihydropyrrolo[1,2-f][1,2,4]triazin-2-yl)ethylamino)pyrimidine-5-carbonitrile]: 5.53; for `O=c1c2cccn2nc([C@H](CO)Nc2ncnc3[nH]cnc23)n1-c1ccccc1` [Example 62, (R)-2-(1-(9H-Purin-6-ylamino)-2-hydroxyethyl)-3-phenylpyrrolo[1,2-f][1,2,4]triazin-4(3H)-one]: 7.14; for `C[C@H](Nc1ncnc2[nH]cnc12)c1nn2ccc(C(F)(F)F)c2c(=O)n1-c1cc(F)cc(F)c1` [Example 90, (S)-2-(1-(9H-Purin-6-ylamino)ethyl)-3-(3,5-difluorophenyl)-5-(trifluoromethyl)pyrrolo[1,2-f][1,2,4]triazin-4(3H)-one]: 8.15. The same measure for `Nc1nc(N2CCC[C@H]2c2nn3cccc3c(=O)n2-c2ccccc2)c2nc[nH]c2n1` [Example 56, (S)-2-(1-(2-Amino-9H-purin-6-yl)pyrrolidin-2-yl)-3-phenyl pyrrolo[1,2-f][1,2,4]triazin-4(3H)-one]: 7.82; for `C[C@H](Nc1ncnc2[nH]cnc12)c1nn2cccc2c(=O)n1-c1ccccc1` [Example 20, (S)-2-(1-(9H-Purin-6-ylamino)ethyl)-3-phenylpyrrolo[1,2-f][1,2,4]triazin-4(3H)-one]: 7.96. Regarding `Cc1ccn2nc([C@H](C)Nc3ncnc4[nH]cnc34)n(-c3ccccc3)c(=O)c12` [Example 68, (S)-2-(1-(9H-Purin-6-ylamino)ethyl)-5-methyl-3-phenyl pyrrolo[1,2-f][1,2,4]triazin-4(3H)-one], the pIC50 is 9.00. With `C[C@H](Nc1ncnc2[nH]cnc12)c1nn2cccc2c(=O)n1-c1cc(F)cc(F)c1` [Example 37, (S)-2-(1-(9H-Purin-6-ylamino)ethyl)-3-(3,5-difluorophenyl)pyrrolo[1,2-f][1,2,4]triazin-4(3H)-one], the pIC50 is 7.82.

`C[C@H](Nc1ncnc(N)c1C#N)c1nn2ccc(Br)c2c(=O)n1-c1cccc(C(F)(F)F)c1` [Example 169, (S)-4-Amino-6-(1-(5-bromo-4-oxo-3-(3-(trifluoromethyl)phenyl)-3,4-dihydropyrrolo[1,2-f][1,2,4]triazin-2-yl)ethylamino)pyrimidine-5-carbonitrile]: the pIC50 is 8.22. `C[C@H](Nc1nc(N)nc2[nH]cnc12)c1nn2ccnc2c(=O)n1-c1ccccc1` [Example 64, (S)-2-(1-(2-Amino-9H-purin-6-ylamino)ethyl)-3-phenylimidazo[1,2-f][1,2,4]triazin-4(3H)-one] gave a pIC50 of 7.16. `CC[C@H](Nc1ncnc2[nH]cnc12)c1nn2cccc2c(=O)n1-c1ccccc1` [Example 15, (S)-2-(1-(9H-Purin-6-ylamino)propyl)-3-phenylpyrrolo[1,2-f][1,2,4]triazin-4(3H)-one]: the pIC50 was 7.74. The same measure for `C[C@H](Nc1ncnc(N)c1C#N)c1nn2ccc(CCO)c2c(=O)n1-c1ccccc1` [Example 159, (S)-4-Amino-6-(1-(5-(2-hydroxyethyl)-4-oxo-3-phenyl-3,4-dihydropyrrolo[1,2-f][1,2,4]triazin-2-yl)ethylamino)pyrimidine-5-carbonitrile]: 7.46. The compound `C[C@H](Nc1ncnc(N)c1C#N)c1nn2ccc(C#N)c2c(=O)n1C1CCCOC1` (single isomer, unassigned) [Example 129] had a negative-log IC50 (pIC50) of 7.42. The same measure for `C[C@H](Nc1ncnc(N)c1C#N)c1nn2cccc2c(=O)n1-c1ccccn1` [Example 43, (S)-4-Amino-6-(1-(4-oxo-3-(pyridin-2-yl)-3,4-dihydropyrrolo[1,2-f][1,2,4]triazin-2-yl)ethylamino)pyrimidine-5-carbonitrile]: 7.96. The same measure for `Cc1cc(-n2c([C@H](C)Nc3ncnc(N)c3C#N)nn3cccc3c2=O)n[nH]1` [Example 127, (S)-4-Amino-6-(1-(3-(5-methyl-1H-pyrazol-3-yl)-4-oxo-3,4-dihydropyrrolo[1,2-f][1,2,4]triazin-2-yl)ethylamino)pyrimidine-5-carbonitrile]: 7.05; for `C[C@H](Nc1ccnc2ccnn12)c1nn2cccc2c(=O)n1-c1ccccc1` [Example 54, (S)-3-Phenyl-2-(1-(pyrazolo[1,5-a]pyrimidin-7-ylamino)ethyl)pyrrolo[1,2-f][1,2,4]triazin-4(3H)-one]: 7.22; for `CC[C@H](Nc1nc(N)nc2[nH]cnc12)c1nn2cccc2c(=O)n1-c1ccccc1` [Example 17, (S)-2-(1-(2-Amino-9H-purin-6-ylamino)propyl)-3-phenylpyrrolo[1,2-f][1,2,4]triazin-4(3H)-one]: 8.05. The same measure for `C[C@H](Nc1ncnc(N)c1C#N)c1nn2ccc(C(F)(F)F)c2c(=O)n1C1CCCOC1` (single isomer, unassigned) [Example 133]: 7.96; for `Cc1ccccc1-n1c(CNc2ncnc(N)c2C#N)nn2cccc2c1=O` [Example 158, 4-Amino-6-((4-oxo-3-o-tolyl-3,4-dihydropyrrolo[1,2-f][1,2,4]triazin-2-yl)methylamino)pyrimidine-5-carbonitrile]: 7.37.

One may read the pIC50 as −log10 of the IC50, conventionally taken in molar units. Low readings indicate a high IC50, high ones a low IC50.
